From US10221163B2 (priority 2015, dated 2019)
Where two headings read alike, the source gives them in different places.

Experiments:
IMP-1 = IMP-1 (Serratia marcescens, UniProt P52699); assay: biochemical; format: biochemical; conditions: fluorescence assay, CCF2-FA substrate, 2 pM enzyme, 2 hours at 25° C.; read-out: IMP-1 IC50
Method in brief: (§1)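 Enzyme activity was measured by fluorescence using CCF2-FA, a cephalosporin-linked 7-hydroxycoumarin/fluorescein substrate, with inhibitor, metallo-β-lactamase and substrate incubated together for 2 hours at 25° C. IC50 came from a 4-parameter fit of inhibition versus log inhibitor concentration.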

NDM-1 = NDM-1 (Klebsiella pneumoniae, UniProt C7C422); assay: biochemical; format: biochemical; conditions: fluorescence assay, CCF2-FA substrate, 1 pM enzyme, 2 hours at 25° C.; read-out: NDM-1 IC50
Method in brief: as §1

VIM-1 = VIM-1 (Pseudomonas aeruginosa (strain ATCC 15692 / DSM 22644 / CIP 104116 / JCM 14847 / LMG 12228 / 1C / PRS 101 / PAO1), UniProt A0A0F7KYQ8); assay: biochemical; conditions: CCF2-FA substrate, 30 pM enzyme, 2 hours at 25° C.
Method in brief: as §1

[1] = system: Escherichia coli expressing NDM-1 (CLB30005, CLB30016); format: cell-based; conditions: NDM-1 strain, with imipenem 1 μg/ml, 95% inhibition of growth
Method in brief: (§2)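 Colonies grown overnight on blood agar at 35° C were suspended in saline, diluted 1:100 into 1.1×CAMHB and dispensed. Imipenem was added to 1 μg/ml, then test compound. After 22 hours to 24 hours at 35° C, absorbance was recorded.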

[2] = system: Klebsiella pneumoniae expressing VIM-1 (IHMA599644); format: cell-based; conditions: VIM-1 strain IHMA599644, with imipenem 1 μg/ml, 95% inhibition of growth
Method in brief: as §2

[3] = system: Serratia marcescens expressing IMP-1 (CL5741); format: cell-based; conditions: IMP-1 strain CL5741, with imipenem 1 μg/ml, 95% inhibition of growth
Method in brief: as §2

[4] = system: Pseudomonas aeruginosa efflux+ (MB9798), IMP-1; format: cell-based; set-up: Concentration of metallo-β-lactamase inhibitor which restores susceptibility of efflux + (MB9798) strain to imipenem: unit not given here; conditions: efflux+ MB9798; imipenem at 2 μg/mL; in the presence of a class A, C, D serine β-lactamase inhibitor closely related to relebactam
Method in brief: (§3)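 P. aeruginosa PAO1-derived IMP-1 strains, efflux+ MB9798 and efflux− MB9799, tested by standard microbroth MIC with imipenem and/or ceftazidime fixed, usually at CLSI breakpoint, plus fixed class A/C β-lactamase inhibitor against AmpC. Inhibitor titrated; concentration restoring susceptibility recorded; MB9798/MB9799 fold difference indicates efflux.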

[5] = system: Pseudomonas aeruginosa efflux− (MB9799), IMP-1; format: cell-based; conditions: efflux− MB9799; imipenem at 2 μg/mL; in the presence of a class A, C, D serine β-lactamase inhibitor closely related to relebactam
Method in brief: as §3

[6] = system: Pseudomonas aeruginosa MB9798 vs MB9799; conditions: fold difference between efflux+ (MB9798) and efflux− (MB9799) strains; imipenem at 2 μg/mL
Method in brief: as §3

[7] = fluorescence assay, read-out: VIM-1 IC50

Sequence of NDM-1 (C7C422 whole entry, looked up, species assumed): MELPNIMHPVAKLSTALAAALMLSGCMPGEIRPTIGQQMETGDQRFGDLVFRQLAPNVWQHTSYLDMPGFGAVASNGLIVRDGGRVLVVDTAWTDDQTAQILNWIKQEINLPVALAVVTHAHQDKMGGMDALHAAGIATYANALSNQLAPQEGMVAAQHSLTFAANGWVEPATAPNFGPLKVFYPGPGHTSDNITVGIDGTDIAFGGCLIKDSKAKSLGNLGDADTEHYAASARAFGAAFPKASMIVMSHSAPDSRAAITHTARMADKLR
Sequence of IMP-1 (P52699 whole entry, looked up, species assumed): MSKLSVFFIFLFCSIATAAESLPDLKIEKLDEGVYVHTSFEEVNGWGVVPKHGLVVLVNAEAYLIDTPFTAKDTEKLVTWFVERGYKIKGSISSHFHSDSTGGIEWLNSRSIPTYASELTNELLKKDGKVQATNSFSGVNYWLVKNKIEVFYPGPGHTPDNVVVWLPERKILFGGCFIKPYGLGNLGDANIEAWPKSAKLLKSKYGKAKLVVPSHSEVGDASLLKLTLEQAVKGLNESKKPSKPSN

NS(=O)(=O)c1c(S(=O)(=O)N[C@@H]2CNC[C@@H]2O)ccc(-c2cccc3[nH]nnc23)c1-c1nn[nH]n1 [Example 412]
IC50 (IMP-1): 2.57 nM | IC50 (NDM-1): 0.108 nM | IC50 (VIM-1; [7]): 0.321 nM | Escherichia coli MITC95 [1]: 3.125 µM | Klebsiella pneumoniae MITC95 [2]: 6.25 µM | Serratia marcescens MITC95 [3]: 3.125 µM | Concentration of metallo-β-lactamase inhibitor which restores susceptibility of efflux + (MB9798) strain to imipenem [4]: 1.563 | Concentration of metallo-β-lactamase inhibitor which restores susceptibility of efflux − (MB9799) strain to imipenem [5]: 3.125 | Efflux ratio [6]: 0.50

NC[C@H](N)CNS(=O)(=O)c1ccc(-c2ccc(N)nc2)c(-c2nn[nH]n2)c1S(N)(=O)=O [Example 415]
IC50 (IMP-1): 0.801 nM | IC50 (NDM-1): 0.361 nM | IC50 (VIM-1; [7]): 0.425 nM | Escherichia coli MITC95 [1]: 0.1953 µM | Klebsiella pneumoniae MITC95 [2]: 3.125 µM | Serratia marcescens MITC95 [3]: 1.172 µM | Concentration of metallo-β-lactamase inhibitor which restores susceptibility of efflux + (MB9798) strain to imipenem [4]: 1.563 | Concentration of metallo-β-lactamase inhibitor which restores susceptibility of efflux − (MB9799) strain to imipenem [5]: 1.563 | Efflux ratio [6]: 1.00

NC[C@@H](N)CNS(=O)(=O)c1ccc(-c2ccc(N)nc2)c(-c2nn[nH]n2)c1S(N)(=O)=O [Example 416]
IC50 (IMP-1): 1.34 nM | IC50 (NDM-1): 0.917 nM | IC50 (VIM-1; [7]): 0.68 nM | Escherichia coli MITC95 [1]: 0.3906 µM | Klebsiella pneumoniae MITC95 [2]: 6.25 µM | Serratia marcescens MITC95 [3]: 1.563 µM | Concentration of metallo-β-lactamase inhibitor which restores susceptibility of efflux + (MB9798) strain to imipenem [4]: 3.125 | Concentration of metallo-β-lactamase inhibitor which restores susceptibility of efflux − (MB9799) strain to imipenem [5]: 3.125 | Efflux ratio [6]: 1.00

NC[C@H](O)CNS(=O)(=O)c1ccc(-c2ccc3nccn3c2)c(-c2nn[nH]n2)c1S(N)(=O)=O [Example 418]
IC50 (IMP-1): 0.834 nM | IC50 (NDM-1): 0.152 nM | IC50 (VIM-1; [7]): 0.113 nM | Escherichia coli MITC95 [1]: 0.3906 µM | Klebsiella pneumoniae MITC95 [2]: 1.563 µM | Serratia marcescens MITC95 [3]: 0.7813 µM | Concentration of metallo-β-lactamase inhibitor which restores susceptibility of efflux + (MB9798) strain to imipenem [4]: 1.563 | Concentration of metallo-β-lactamase inhibitor which restores susceptibility of efflux − (MB9799) strain to imipenem [5]: 0.7813 | Efflux ratio [6]: 2.00

NC[C@@H](O)CNS(=O)(=O)c1ccc(-c2ccc3nccn3c2)c(-c2nn[nH]n2)c1S(N)(=O)=O [Example 420]
IC50 (IMP-1): 0.974 nM | IC50 (NDM-1): 0.23 nM | IC50 (VIM-1; [7]): 0.125 nM | Escherichia coli MITC95 [1]: 0.3906 µM | Klebsiella pneumoniae MITC95 [2]: 3.125 µM | Serratia marcescens MITC95 [3]: 1.563 µM | Concentration of metallo-β-lactamase inhibitor which restores susceptibility of efflux + (MB9798) strain to imipenem [4]: 1.563 | Concentration of metallo-β-lactamase inhibitor which restores susceptibility of efflux − (MB9799) strain to imipenem [5]: 0.7813 | Efflux ratio [6]: 2.00

C[C@@H](N)CNS(=O)(=O)c1ccc(-c2ccc3nccn3c2)c(-c2nn[nH]n2)c1S(N)(=O)=O [Example 423]
IC50 (IMP-1): 1.15 nM | IC50 (NDM-1): 0.303 nM | IC50 (VIM-1; VIM-1 IC50, fluorescence assay): 0.18 nM | Escherichia coli MITC95 [1]: 0.3906 µM | Klebsiella pneumoniae MITC95 [2]: 1.563 µM | Serratia marcescens MITC95 [3]: 0.7813 µM | Concentration of metallo-β-lactamase inhibitor which restores susceptibility of efflux + (MB9798) strain to imipenem [4]: 3.125 | Concentration of metallo-β-lactamase inhibitor which restores susceptibility of efflux − (MB9799) strain to imipenem [5]: 0.7813 | Efflux ratio [6]: 4.00

Nc1nc2c(-c3ccc(S(=O)(=O)N[C@@H]4CNC[C@H]4N)c(S(N)(=O)=O)c3-c3nn[nH]n3)cccc2[nH]1 [Example 424]
IC50 (IMP-1): 0.814 nM | IC50 (NDM-1): 0.0869 nM | IC50 (VIM-1; VIM-1 IC50, fluorescence assay): 0.301 nM | Escherichia coli MITC95 [1]: 0.7813 µM | Klebsiella pneumoniae MITC95 [2]: 1.563 µM | Serratia marcescens MITC95 [3]: 1.563 µM | Concentration of metallo-β-lactamase inhibitor which restores susceptibility of efflux + (MB9798) strain to imipenem [4]: 1.563 | Concentration of metallo-β-lactamase inhibitor which restores susceptibility of efflux − (MB9799) strain to imipenem [5]: 1.563 | Efflux ratio [6]: 1.00

NC[C@@H]1C[C@@H](NS(=O)(=O)c2ccc(-c3cccc4[nH]c(N)nc34)c(-c3nn[nH]n3)c2S(N)(=O)=O)CN1 [Example 425, 4-(2-amino-1H-benzo[d]imidazol-4-yl)-N^1-((3R,5S)-5-(aminomethyl)pyrrolidin-3-yl)-3-(2H-tetrazol-5-yl)benzene-1,2-disulfonamide]
IC50 (IMP-1): 0.886 nM | IC50 (NDM-1): 0.0419 nM | IC50 (VIM-1; [7]): 0.16 nM | Escherichia coli MITC95 [1]: 0.7813 µM | Klebsiella pneumoniae MITC95 [2]: 3.125 µM | Serratia marcescens MITC95 [3]: 3.125 µM | Concentration of metallo-β-lactamase inhibitor which restores susceptibility of efflux + (MB9798) strain to imipenem [4]: 1.563 | Concentration of metallo-β-lactamase inhibitor which restores susceptibility of efflux − (MB9799) strain to imipenem [5]: 1.563 | Efflux ratio [6]: 1.00

NC[C@@H](CO)NS(=O)(=O)c1ccc(-c2cccc3[nH]c(N)nc23)c(-c2nnn[nH]2)c1S(N)(=O)=O [Example 426, (S)-4-(2-Amino-1H-benzo[d]imidazol-4-yl)-N^1-(1-amino-3-hydroxypropan-2-yl)-3-(1H-tetrazol-5-yl)benzene-1,2-disulfonamide]
IC50 (IMP-1): 0.273 nM | IC50 (NDM-1): 0.0322 nM | IC50 (VIM-1; [7]): 0.168 nM | Escherichia coli MITC95 [1]: 0.3906 µM | Klebsiella pneumoniae MITC95 [2]: 1.563 µM | Serratia marcescens MITC95 [3]: 0.7813 µM | Concentration of metallo-β-lactamase inhibitor which restores susceptibility of efflux + (MB9798) strain to imipenem [4]: 0.3906 | Concentration of metallo-β-lactamase inhibitor which restores susceptibility of efflux − (MB9799) strain to imipenem [5]: 0.7813 | Efflux ratio [6]: 0.50

NC[C@H](CO)NS(=O)(=O)c1ccc(-c2cccc3nc(N)[nH]c23)c(-c2nn[nH]n2)c1S(N)(=O)=O [Example 427]
IC50 (IMP-1): 2.61 nM | IC50 (NDM-1): 0.221 nM | IC50 (VIM-1; [7]): 0.547 nM | Escherichia coli MITC95 [1]: 0.3906 µM | Klebsiella pneumoniae MITC95 [2]: 1.563 µM | Serratia marcescens MITC95 [3]: 0.7813 µM | Concentration of metallo-β-lactamase inhibitor which restores susceptibility of efflux + (MB9798) strain to imipenem [4]: 0.7813 | Concentration of metallo-β-lactamase inhibitor which restores susceptibility of efflux − (MB9799) strain to imipenem [5]: 0.7813 | Efflux ratio [6]: 1.00

Nc1nc(-c2cccc(-c3ccc(S(=O)(=O)N[C@@H]4CCNC4)c(S(N)(=O)=O)c3-c3nn[nH]n3)c2)c[nH]1 [Example 428]
IC50 (IMP-1): 0.407 nM | IC50 (NDM-1): 0.0473 nM | IC50 (VIM-1; VIM-1 IC50, fluorescence assay): 0.133 nM | Escherichia coli MITC95 [1]: 0.3906 µM | Klebsiella pneumoniae MITC95 [2]: 1.563 µM | Serratia marcescens MITC95 [3]: 0.7813 µM | Concentration of metallo-β-lactamase inhibitor which restores susceptibility of efflux + (MB9798) strain to imipenem [4]: 0.7813 | Concentration of metallo-β-lactamase inhibitor which restores susceptibility of efflux − (MB9799) strain to imipenem [5]: 0.7813 | Efflux ratio [6]: 1.00
